Assay results as given in publication PMC11243693, “Synthesis and Biological Evaluation of New Compounds with Nitroimidazole Moiety” (Molecules, 2024).
≈ marks a conversion by molar mass, not a printed value.

Tested on: Candida tropicalis ATCC 1369
Test: Broth microdilution, C. tropicalis ATCC 1369
Type: cell-based
Conditions: Ct 1369
Method in brief: (§1)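 EUCAST broth microdilution with twofold dilutions from a 1000 µg/mL starting solution, in Mueller-Hinton broth for B. cereus or Mueller-Hinton plus 2% glucose for Candida. Inoculum was a 10-fold diluted 0.5 McFarland suspension. After 18 ± 2 h at 35 ± 2 °C, MIC was read by A570; MBC/MFC by subculture showing 99.9% kill.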

Q: What does the source list for `COc1ccccc1NC(=S)NNC(=O)c1nc([N+](=O)[O-])cn1C` [Compound 9]?
A: MFC: 1000 µg/mL (≈ 2850 µM); MIC: 500 µg/mL (≈ 1430 µM)

Same assay, conditions: Ct 1369; <4 fungicidal, ≥4 fungistatic

Q: Which “MFC/MIC Ratio” value does the source give for `COc1ccccc1NC(=S)NNC(=O)c1nc([N+](=O)[O-])cn1C` [Compound 9] here?
A: Its value is 2.

Tested on: Staphylococcus epidermidis ATCC 12228
Test: Broth microdilution, S. epidermidis ATCC 12228
Type: cell-based
Conditions: Se 12228
Method in brief: (§2)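 Compounds are diluted twofold, starting at 1000 µg/mL, in Mueller-Hinton medium, supplemented with 2% glucose for the yeast strains. Wells then receive a tenfold-diluted 0.5 McFarland inoculum and incubate 18 ± 2 h at 35 ± 2 °C. Absorbance at 570 nm gives the MIC.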

Q: For `COc1ccccc1NC(=S)NNC(=O)c1nc([N+](=O)[O-])cn1C` [Compound 9], which MBC is on record?
A: The MBC was over 1000 µg/mL.

Q: What about the MIC of the same compound?
A: The MIC was 500 µg/mL (≈ 1430 µM).

Tested on: Staphylococcus aureus ATCC 25923
Test: Broth microdilution, S. aureus ATCC 25923
Type: cell-based
Conditions: Sa 25923
Method in brief: as §2

Q: With `COc1ccccc1NC(=S)NNC(=O)c1nc([N+](=O)[O-])cn1C` [Compound 9] as the compound, how does the MBC read?
A: The MBC was over 1000 µg/mL.

Q: What about the MIC of the same compound?
A: Its MIC is 500 µg/mL (≈ 1430 µM).

Tested on: Candida krusei ATCC 14243
Test: Broth microdilution, C. krusei ATCC 14243
Type: cell-based
Conditions: Ck 14243
Method in brief: as §1

Q: How did the MIC turn out when `COc1ccccc1NC(=S)NNC(=O)c1nc([N+](=O)[O-])cn1C` [Compound 9] was run?
A: Its MIC is over 1000 µg/mL.

Tested on: Candida parapsilosis ATCC 22019
Test: Broth microdilution, C. parapsilosis ATCC 22019
Type: cell-based
Conditions: Cp 22019
Method in brief: as §1

Q: Which MFC does the source give for `COc1ccccc1NC(=S)NNC(=O)c1nc([N+](=O)[O-])cn1C` [Compound 9] here?
A: Its MFC is 1000 µg/mL (≈ 2850 µM).

Q: What about the MIC of the same compound?
A: Its MIC is 500 µg/mL (≈ 1430 µM).

Same assay, conditions: Cp 22019; <4 fungicidal, ≥4 fungistatic

Q: For `COc1ccccc1NC(=S)NNC(=O)c1nc([N+](=O)[O-])cn1C` [Compound 9], which “MFC/MIC Ratio” value is on record?
A: Its value is 2.

Tested on: Candida spp.
Test: Broth microdilution, Candida spp.
Type: cell-based
Conditions: range over both strains and the listed compounds
Description: The antibacterial activity of the obtained thiosemicarbazides and hydrazide–hydrazones was determined by evaluating their ability to inhibit microbial growth in vitro using the broth microdilution method, according to the guidelines of the European Committee on Antimicrobial Susceptibility Testing (EUCAST). The method involved the preparation of microbial suspensions with a standardized density of 0.5 on the McFarland scale (equivalent to 1.5 × 10^8 colony-forming units/mL for bacteria and […] for fungi). A solution of the test substances was then prepared (initial concentration 1000 µg/mL, diluted in sterile Mueller-Hinton broth for bacteria or Mueller-Hinton with 2% glucose for fungi). The test was carried out in 96-well polystyrene flat-bottom plates (Medlab, Poland) with 100 µL of appropriate sterile microbiological medium in each well. The first wells were filled with 200 µL of the test substance, diluted to the initial concentration, and then double-decreasing dilutions were made under aseptic conditions using an automatic pipette. The final step was the addition of a 10-fold diluted microbial suspension of 2 µL. At the same time, the following controls were included: (a) medium control (100 µL of sterile medium without microorganisms added), (b) microbial viability control, (c) test substance control (dilutions without added micro-organisms), (d) positive control of the drug used in the clinic. The plates thus prepared were incubated for 18 ± 2 h at 35 ± 2 °C under conditions optimal for the growth of the test microorganisms. After incubation, the spectrophotometric absorbance at 570 nm in each well of the plate was read. The aim of this part of the study was to determine two parameters: the minimum inhibitory concentration (MIC) and the minimum bactericidal or fungicidal concentration (MBC/MFC) of the test compound. […] The MBC value was determined by adding 5 µL of the contents of each well of the plate to solid sterile MHA or MHA + 2%glc medium for bacteria and fungi, respectively. The area on the plate where 99.9% inhibition of microbial growth was observed indicated the lethal concentration. In addition, the quotient MBC(MFC)/MIC could be determined to assess the nature of the activity of the test substance. If MBC(MFC)/MIC was <4, the test substance was bactericidal/fungicidal, whereas if MBC(MFC)/MIC was ≥4, it was bacteriostatic/fungistatic. Amoxicillin (Glentham Life Sciences, USA) and nystatin (Glentham Life Sciences, USA) were used as the controls for this assay.
The test was performed either on bacteria, comprising: Gram-positive (Staphylococcus aureus ATCC 25923, Staphylococcus aureus ATCC 6538, Staphylococcus aureus ATCC 43300 methicillin-resistant MRSA, Staphylococcus epidermidis ATCC 12228, Micrococcus luteus ATCC 10240, Bacillus subtilis ATCC 6633, Bacillus cereus ATCC 10876) and Gram-negative (Escherichia coli ATCC 25922, Pseudomonas aeruginosa ATCC 27853, Proteus mirabilis ATCC 12453, Klebsiella pneumoniae ATCC 13883) or yeast (Candida parapsilosis ATCC 22019, Candida glabrata ATCC 90030, Candida krusei ATCC 14243, Candida glabrata ATCC 15126, Candida tropicalis ATCC 1369, Candida auris CDC B11903, Candida lusitaniae ATCC 3449) reference strains from the American Type Culture Collection (ATCC) or the Centers for Disease Control and Prevention (CDC).

Q: `COc1ccccc1NC(=S)NNC(=O)c1nc([N+](=O)[O-])cn1C` [Compound 9] was tested. Which “MBC (range, C. parapsilosis ATCC 22019 and C. tropicalis ATCC 1369)” value did it give?
A: Its value is 500 to 1000 µg/mL.

Q: And the “MIC (range, C. parapsilosis ATCC 22019 and C. tropicalis ATCC 1369)” value?
A: The value was 62.5 to 1000 µg/mL.

Tested on: Candida glabrata ATCC 15126
Test: Broth microdilution, C. glabrata ATCC 15126
Type: cell-based
Conditions: Cg 15126
Method in brief: as §1

Q: With `COc1ccccc1NC(=S)NNC(=O)c1nc([N+](=O)[O-])cn1C` [Compound 9] as the compound, how does the MIC read?
A: Its MIC is over 1000 µg/mL.

Tested on: Candida lusitaniae ATCC 3449
Test: Broth microdilution, C. lusitaniae ATCC 3449
Type: cell-based
Conditions: Cl 3449
Method in brief: as §1

Q: Which MIC does the source give for `COc1ccccc1NC(=S)NNC(=O)c1nc([N+](=O)[O-])cn1C` [Compound 9] here?
A: Its MIC is over 1000 µg/mL.

Tested on: Micrococcus luteus ATCC 10240
Test: Broth microdilution, M. luteus ATCC 10240
Type: cell-based
Conditions: Ml 10240
Method in brief: as §2

Q: `COc1ccccc1NC(=S)NNC(=O)c1nc([N+](=O)[O-])cn1C` [Compound 9] was tested. Which MBC did it give?
A: The MBC was over 1000 µg/mL.

Q: And the MIC?
A: Its MIC is 500 µg/mL (≈ 1430 µM).

Tested on: Candida glabrata ATCC 90030
Test: Broth microdilution, C. glabrata ATCC 90030
Type: cell-based
Conditions: Cg 90030
Method in brief: as §1

Q: Which MIC does the source give for `COc1ccccc1NC(=S)NNC(=O)c1nc([N+](=O)[O-])cn1C` [Compound 9] here?
A: The MIC was over 1000 µg/mL.

Tested on: Bacillus cereus ATCC 10876
Test: Broth microdilution, B. cereus ATCC 10876
Type: cell-based
Conditions: Bc 10876
Method in brief: as §1

Q: Which results are given for `COc1ccccc1NC(=S)NNC(=O)c1nc([N+](=O)[O-])cn1C` [Compound 9]?
A: MBC: >1000 µg/mL; MIC: 1000 µg/mL (≈ 2850 µM)

Tested on: Staphylococcus aureus ATCC 6538
Test: Broth microdilution, S. aureus ATCC 6538
Type: cell-based
Conditions: Sa 6538
Method in brief: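 MIC: A570 after 18 ± 2 h, 35 ± 2 °C. Medium: MH broth (bacterium) or MH + 2% glucose (yeasts). Serial 2-fold dilutions of compound, top solution 1000 µg/mL. Inoculum: 0.5 McFarland suspension diluted 10×. MBC/MFC: subculture onto MHA or MHA + 2% glc, 99.9% growth inhibition.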

Q: What does the source list for `COc1ccccc1NC(=S)NNC(=O)c1nc([N+](=O)[O-])cn1C` [Compound 9]?
A: MBC: >1000 µg/mL; MIC: 1000 µg/mL (≈ 2850 µM)

Tested on: Bacillus subtilis ATCC 6633
Test: Broth microdilution, B. subtilis ATCC 6633
Type: cell-based
Conditions: Bs 6633
Method in brief: as §2

Q: Which MBC does the source give for `COc1ccccc1NC(=S)NNC(=O)c1nc([N+](=O)[O-])cn1C` [Compound 9] here?
A: Its MBC is 500 µg/mL (≈ 1430 µM).

Q: And the MIC?
A: Its MIC is 500 µg/mL (≈ 1430 µM).

Same assay, conditions: Bs 6633; <4 bactericidal, ≥4 bacteriostatic

Q: Which “MBC/MIC Ratio” value does the source give for `COc1ccccc1NC(=S)NNC(=O)c1nc([N+](=O)[O-])cn1C` [Compound 9] here?
A: The value was 1.

Tested on: Candida auris CDC B11903
Test: Broth microdilution, C. auris CDC B11903
Type: cell-based
Conditions: Ca B11903
Method in brief: as §1

Q: Which MIC does the source give for `COc1ccccc1NC(=S)NNC(=O)c1nc([N+](=O)[O-])cn1C` [Compound 9] here?
A: Its MIC is over 1000 µg/mL.

Tested on: Staphylococcus aureus ATCC 43300 methicillin-resistant MRSA
Test: Broth microdilution, S. aureus ATCC 43300 MRSA
Type: cell-based
Conditions: Sa 43300 MRSA
Method in brief: as §2

Q: How did the MBC turn out when `COc1ccccc1NC(=S)NNC(=O)c1nc([N+](=O)[O-])cn1C` [Compound 9] was run?
A: Its MBC is over 1000 µg/mL.

Q: And the MIC?
A: Its MIC is 1000 µg/mL (≈ 2850 µM).
